According to ChEMBL document CHEMBL1201862, “PubChem BioAssay data set” (2004):
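How tested: cells in 96-well plates exposed to compound for 48 hours at five concentrations. GI50 = concentration required for 50% inhibition of growth.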 Active and inactive are the calls of the source. Cut-off read from the data, not from the text of the source: active = GI50 up to about 1.1 µM and inactive = higher.

Columns and labels:
Experiment in all cases: NCI tumour cell line growth inhibition, 48 h
LXFL 529 = system: LXFL 529
DLD-1 = system: DLD-1
HOP-18 = system: HOP-18
KM-20L2 = system: KM-20L2
SNB-78 = system: SNB-78
DMS-273 = system: DMS-273
DMS-114 = system: DMS-114
XF498 = system: XF498
RXF 631 = system: RXF 631

Measured: GI50

O=C(c1ccccc1)C(c1ccccc1)C1(O)C(=O)Nc2c(Cl)ccc(Cl)c21 (stereo unspecified)
inactive: LXFL 529 17.2 µM | DLD-1 18.2 µM | HOP-18 24.2 µM | KM-20L2 34.2 µM | SNB-78 25.5 µM | DMS-273 14.4 µM | DMS-114 17 µM

C/C(CN1C(=O)c2ccccc2C1=O)=N\NS(C)(=O)=O
inactive: LXFL 529 > 100 µM | DLD-1 > 100 µM | HOP-18 > 100 µM | KM-20L2 > 100 µM | SNB-78 > 100 µM | DMS-273 > 100 µM | XF498 > 100 µM | DMS-114 > 100 µM

Cc1nn2c(=O)n(-c3cccc(-n4nnc5c(-c6ccccc6)c(C)nn5c4=O)c3C)nnc2c1-c1ccccc1
inactive: LXFL 529 24.7 µM | DLD-1 22.8 µM | HOP-18 4.94 µM | KM-20L2 19.5 µM | SNB-78 82.2 µM | DMS-273 66.8 µM | XF498 20.9 µM | DMS-114 13.8 µM

CCCCCCCCCC(=O)Oc1cccc2onc(C)c12
inactive: LXFL 529 > 100 µM | DLD-1 > 100 µM | HOP-18 > 100 µM | KM-20L2 > 100 µM | SNB-78 > 100 µM | DMS-273 > 100 µM | RXF 631 > 100 µM | DMS-114 > 100 µM

Oc1ncnc2c1nnn2CCCCCCCCCCCCn1nnc2c(O)ncnc21
inactive: LXFL 529 33.6 µM | DLD-1 > 91.2 µM | HOP-18 24.2 µM | KM-20L2 > 100 µM | SNB-78 19.2 µM | DMS-273 27.5 µM | DMS-114 7.06 µM

COc1ccc([C@H]2CC(=O)N3CCCC3N2)cc1 (stereo partly specified)
inactive: LXFL 529 > 100 µM | DLD-1 > 100 µM | HOP-18 43 µM | KM-20L2 > 100 µM | SNB-78 > 100 µM | DMS-273 > 100 µM | XF498 > 100 µM | DMS-114 > 100 µM

CC(C)(C)NN=C1C(C)(C)C(=NNC(C)(C)C)C1(C)C
inactive: LXFL 529 > 100 µM | DLD-1 > 100 µM | KM-20L2 > 100 µM | SNB-78 > 100 µM | DMS-273 > 100 µM | XF498 > 100 µM | DMS-114 > 100 µM

O=C(O)CCSC(=O)Nc1cccc2ccccc12
inactive: LXFL 529 > 100 µM | DLD-1 > 100 µM | HOP-18 > 100 µM | KM-20L2 > 100 µM | SNB-78 > 100 µM | DMS-273 > 100 µM | XF498 > 100 µM | RXF 631 > 100 µM | DMS-114 > 100 µM

COC1=CC(=O)C2C(C1=O)C(c1ccc(Cl)cc1)[C@@H]2C (stereo partly specified)
inactive: LXFL 529 17.5 µM | DLD-1 25.9 µM | HOP-18 12.2 µM | KM-20L2 51.1 µM | SNB-78 36.8 µM | DMS-273 41 µM | XF498 18.3 µM | DMS-114 21.5 µM

Brc1ccc2c(c1)C1(c3cc(Br)ccc3-2)c2cc(Br)ccc2-c2ccc(Br)cc21
inactive: LXFL 529 > 100 µM | DLD-1 > 100 µM | HOP-18 > 100 µM | KM-20L2 > 100 µM | SNB-78 > 100 µM | DMS-273 > 100 µM | XF498 > 100 µM | RXF 631 > 100 µM | DMS-114 > 100 µM

C=C(C)C1CCC2(C)CC1c1c(c(C)cc3c1[nH]c1ccccc13)O2 (stereo unspecified)
inactive: LXFL 529 > 25 µM | DLD-1 > 25 µM | KM-20L2 > 25 µM | DMS-273 > 25 µM | XF498 > 25 µM | DMS-114 > 25 µM

CC(C)(C)OC(=O)NC(CO)c1cccc(OCc2ccccc2)c1 (stereo unspecified)
inactive: LXFL 529 > 100 µM | DLD-1 > 100 µM | HOP-18 > 100 µM | KM-20L2 > 100 µM | SNB-78 83.4 µM | DMS-273 53.2 µM | XF498 > 100 µM | DMS-114 23.1 µM

COc1ccc(/C=C\c2cc(OC)c(OC(C)=O)c(OC)c2)cc1
inactive: LXFL 529 19.7 µM | DLD-1 14.2 µM | KM-20L2 29.5 µM | SNB-78 25.5 µM | DMS-273 5.31 µM | XF498 30.3 µM | RXF 631 23.5 µM | DMS-114 4.78 µM

CC1CCC(O)C(C(O)CC2CC(=O)N(C)C(=O)C2)C1 (stereo unspecified)
inactive: LXFL 529 > 100 µM | DLD-1 > 100 µM | HOP-18 > 100 µM | KM-20L2 > 100 µM | SNB-78 > 100 µM | DMS-273 > 100 µM | XF498 > 100 µM | RXF 631 > 100 µM | DMS-114 > 100 µM

O=NN(CCCl)C(=O)N[C@H]1CC[C@@H](C(=O)O)CC1
inactive: LXFL 529 > 100 µM | DLD-1 > 100 µM | HOP-18 > 69.5 µM | KM-20L2 > 100 µM | SNB-78 > 100 µM | DMS-273 > 100 µM | XF498 > 100 µM | RXF 631 > 100 µM | DMS-114 52.7 µM

COC(=O)N1[C@H]2Cc3c(OC)c(C)c(OC)c(OC)c3[C@@H]1/C(=C\c1cc(OC)c(OC)c(C)c1OC)N(Cc1ccccc1)C2=O
inactive: LXFL 529 22 µM | DLD-1 76.9 µM | HOP-18 41.8 µM | KM-20L2 46.2 µM | DMS-273 13.2 µM | DMS-114 14.7 µM

N#C/C(=C/c1cccc(Oc2ccccc2)c1)c1ccccc1
inactive: LXFL 529 > 100 µM | DLD-1 > 100 µM | HOP-18 > 100 µM | SNB-78 > 100 µM | XF498 > 100 µM | DMS-114 51.8 µM

N/C(=N\N=C=C1C(=O)Nc2ccc(F)cc21)NO
inactive: LXFL 529 > 100 µM | DLD-1 > 100 µM | SNB-78 > 100 µM | DMS-273 > 100 µM | XF498 > 100 µM | RXF 631 > 100 µM | DMS-114 > 100 µM

C[N+](C)=c1nc(N2CCc3ccccc3C2)ss1.[O-][Cl+3]([O-])([O-])[O-]
inactive: LXFL 529 69.3 µM | DLD-1 90.4 µM | HOP-18 > 100 µM | KM-20L2 > 100 µM | SNB-78 > 100 µM | DMS-273 > 100 µM | RXF 631 > 100 µM | DMS-114 60.1 µM

Nc1ccc(C(=O)N/C(=C\c2cccc([N+](=O)[O-])c2)c2nc3c4c(ccc3[nH]2)C(=O)c2ccccc2C4=O)cc1
inactive: LXFL 529 16.5 µM | DLD-1 11.2 µM | HOP-18 11 µM | KM-20L2 > 100 µM | SNB-78 > 100 µM | DMS-273 27.5 µM | XF498 > 100 µM | RXF 631 29.9 µM | DMS-114 8.18 µM

O=C(Cc1ccccc1)NN1C(=O)C(Cl)C1c1ccc(O)cc1 (stereo unspecified)
inactive: DLD-1 > 100 µM | HOP-18 > 100 µM | KM-20L2 > 100 µM | DMS-273 > 100 µM | DMS-114 > 100 µM

COC(=O)c1cc(Br)c(Br)n1C
inactive: LXFL 529 > 100 µM | DLD-1 81.8 µM | HOP-18 > 100 µM | KM-20L2 > 100 µM | SNB-78 > 100 µM | DMS-273 > 100 µM | XF498 > 100 µM | RXF 631 > 100 µM | DMS-114 > 100 µM

Cn1cnc([N+](=O)[O-])c1Sc1nc2cccnc2[nH]1
inactive: LXFL 529 39.2 µM | DLD-1 25.6 µM | HOP-18 70.1 µM | KM-20L2 > 100 µM | SNB-78 > 100 µM | DMS-273 1.61 µM | XF498 45.8 µM | RXF 631 1.73 µM | DMS-114 24.8 µM

CCOC(=O)C1Oc2ccc([N+](=O)[O-])c3c2C1(O)CCC3 (stereo unspecified)
inactive: LXFL 529 > 100 µM | DLD-1 > 100 µM | SNB-78 > 100 µM | DMS-273 > 100 µM | RXF 631 > 100 µM | DMS-114 > 100 µM

CC1=C(C#N)C(N)=C2C(C)=C(C#N)C(N)=C12
inactive: LXFL 529 > 100 µM | DLD-1 > 100 µM | KM-20L2 > 100 µM | SNB-78 > 100 µM | DMS-273 > 100 µM | XF498 > 100 µM | DMS-114 > 100 µM
